Measurements: US8957192B2, “Human cytotoxic T-lymphocyte epitope and its agonist epitope from the non-variable number of tandem repeat sequence of MUC-1” (The United States of America, as represented by the …, priority 2003, dated 2015)

Columns and labels:
HLA-A2 molecule [1] = molecular target: HLA-A2 molecule (Homo sapiens, UniProt P04439, I166T/I218V/L300P/L318F/N151K/N90K/P208A/P217A/Q86G/Q94H/R138H/R169H/T345S); assay: T2 cell binding assay: peptide binding to HLA-A2 by flow cytometry
Protocol: In this assay, increased stability (accumulation) of HLA-A2 molecules on the surface of T2 cells as a consequence of peptide binding is measured by increased binding of antibody directed against HLA-A2 molecule. Briefly, 1×10^6 cells in serum-free Iscove's modified Dulbecco's complete medium were incubated with peptides at a concentration of 50 μg/ml in 24-well culture plates at 37° C. in 5% CO2. Flow cytometry for peptide binding was performed using T2 cells and single-color analysis. After cells were washed three times in DPBS, as described above, they were incubated for 1 h with a 1:100 dilution of HLA-A2-specific MAb (One Lambda, Inc.) per 10^6 cells. UPC-10 (Cappel/Organon Teknika) was used as isotype control. The cells were then washed three times and incubated with 1:100 dilution of FITC-labeled anti-mouse IgG (BD Biosciences). Analysis was conducted with the FACScan, as described above. Cells were maintained on ice during all cell preparation and staining.
The primary amino acid sequence of human MUC-1 was analyzed for consensus motifs for novel HLA-A2 binding peptides. […] The CEA CAP1-6D peptide and a NCA peptide were used as a positive and negative control, respectively.

HLA-A2 molecule [2] = molecular target: HLA-A2 molecule (Homo sapiens, UniProt P04439, D140Y/D185E/D98H/E176V/E277Q/G131W/G231S/I119V/I121R/I166T/I218V/L300P/L318F/N151K/N90K/P208A/P217A/Q86G/Q94H/R138H/R169H/T345S); assay: as above; conditions: peptides 0-50 μg/ml; MFI
peptide-HLA-A2 complexes = peptide-HLA-A2 complexes (Homo sapiens, UniProt P04439, D140Y/D185E/D98H/E176V/E277Q/G131W/G231S/I119V/I121R/I166T/I218V/L300P/L318F/N151K/N90K/P208A/P217A/Q86G/Q94H/R138H/R169H/T345S); assay: Stability of peptide-HLA-A2 complex on T2 cells (brefeldin-A); type: binding; conditions: 50 μg/ml overnight, 8-hour observation
Protocol: FIG. 2 is a graph showing the comparison of the stability of the complex of the P-92, P-93L or P-93I peptide with HLA-A2. T2 cells were incubated overnight with P-92 (open square), P-93L (closed square) or P-93I (closed triangle) peptide at a concentration of 50 μg/ml and then washed free of unbound peptide and incubated with brefeldin-A to block delivery of new class I molecules to the cell surface. At the indicated times, cells were stained for the presence of surface peptide-HLA-A2 complexes. Results are expressed in relative percentage of binding compared with 100% at time 0.
The stability of the peptide-MHC complex for peptides P-92 (native), P-93L and P-93I, was examined. Peptides were incubated with T2 cells overnight, the unbound peptides were washed off, and then incubated with brefeldin-A to block delivery of new class I molecules to the cell surface; at various time points cells were analyzed for the presence of peptide-HLA-A2 complexes.

T-1191-MUC-1 cells [3] = assay: IFN-γ production (ELISA) by T-1191-MUC-1 cells stimulated with peptide-pulsed autologous B cells; type: cell-based, human; conditions: T-1191-MUC-1 at IVS-3; autologous EBV-B cells pulsed 25 μg/ml; effector-to-APC 1:3; 24 h
Protocol: (§1) Supernatants of T cells exposed for 24 h to peptide-pulsed autologous EBV-transformed B cells, in IL-2-free medium at various peptide concentrations, were screened for secretion of IFN-γ using an ELISA kit (R & D Systems, Minneapolis, Minn.). The results were expressed in pg/ml. A CBA system (BD PharMingen, San Diego, Calif.) was also used to determine the secretion of multiple cytokines by specific T cells. The CBA system uses the fluorescence detection by flow cytometry to measure soluble analyses in a particles-based immunoassay. The BD human Th1/Th2 cytokine CBA Kit was used to measure IL-2, IL-4, IL-5, IL-10, TNF-α protein levels in a single sample. The cytokine capture beads were mixed with PE-conjugated detection antibodies and then incubated with recombinant cytokine standards or test samples to form sandwich complexes. The sample results were generated in graphic and tabular format, using BD PharMingen CBA analysis software. The results were expressed in pg/ml.
The specificity of the MUC-1-specific T cells generated (designated T-1191-MUC-1) was analyzed after IVS cycle 3 (see Materials and Methods) for their ability to release IFN-γ after stimulation with autologous B cells pulsed with each of the MUC-1 peptides listed in Table 1.

[4] = tested on: T-cell lines T-55, T-49, T-41; assay: IFN-γ production by T-cell lines from cancer patients established with rF-CEA/MUC/TRICOM-infected DCs; type: cell-based, human; conditions: autologous DCs as APC; peptides 25 μg/ml; effector-to-APC 10:1; 24 h
[5] = tested on: MUC-1-specific T-cell lines T-23-P-92, T-23-P-93L, T-18-P-92, T-18-P-93L; assay: IFN-γ production by T-cell lines from two pancreatic cancer subjects stimulated with peptide-pulsed DCs; type: cell-based, human; conditions: IVS-4; allogeneic DCs pulsed 25 μg/ml; effector-to-APC 10:1; 24 h
T-1191-MUC-1 cells [6] = assay: CBA assay for production of cytokines by MUC-1 peptide-stimulated T cells; type: cell-based, human; conditions: peptide 25 μg/ml; effector-to-APC 1:3; 24 h
Protocol: as §1
The ability of the P-93L and P-93I agonist peptides at various peptide concentrations, to activate the T-1191-MUC-1 cells, was compared. […] The P-93L agonist peptide was thus chosen for further study. The cytokine profile of T-1191-MUC-1 cells stimulated with APCs pulsed with either the P-92 or the P-93L peptide was then analyzed. A CBA assay was used for the analysis. […] No TNF-α could be detected in the supernatants at the 24-h time point.

[7] = Table 1, T2 cells, peptide 50 μg/ml

YRPGENLNL [NCA, NCA peptide used as a negative control, reference compound]
T2 binding (HLA-A2 molecule [1]; [7]): 365 relative fluorescence

AIWGQDVTSV [Peptide P-93I]
T2 binding (HLA-A2 molecule [1]; Table 4, P-92 analogues): 823 relative fluorescence values | binding to HLA-A2 at various peptide concentrations (FIG. 1) (HLA-A2 molecule [2]): higher levels than P-92 at all peptide concentrations | stability of the peptide-HLA-A2 complex (FIG. 2) (peptide-HLA-A2 complexes): more stable than P-92-HLA-A2 complexes

VLVALAIVYL [Peptide P-1169]
T2 binding (HLA-A2 molecule [1]; [7]): 369 relative fluorescence | Production of IFN-γ, with peptide (T-1191-MUC-1 cells [3]): <52.3 pg/mL

TLASHSTKTD [Peptide P-1104]
T2 binding (HLA-A2 molecule [1]; [7]): 442 relative fluorescence | Production of IFN-γ, with peptide (T-1191-MUC-1 cells [3]): 305.6 pg/mL

VISNDVCAQV [PSA peptide, prostate-specific antigen (PSA) peptide, control]
IFN-γ secretion by T-41 [4]: <15.6 pg/mL | IFN-γ secretion by T-49 [4]: <15.6 pg/mL | IFN-γ secretion by T-55 [4]: <15.6 pg/mL

ATWGQDVTSV [Peptide P-92]
T2 binding (HLA-A2 molecule [1]; [7]): 740 relative fluorescence | T2 binding (HLA-A2 molecule [1]; Table 4, P-92 analogues): 510 relative fluorescence values | IFN-γ produced by T-18-P-92 [5]: 168.0 pg | IFN-γ produced by T-18-P-93L [5]: 378.2 pg | IFN-γ produced by T-23-P-92 [5]: 299.8 pg | IFN-γ produced by T-23-P-93L [5]: 400.5 pg | Production of IFN-γ, with peptide (T-1191-MUC-1 cells [3]): 380.8 pg/mL | IFN-γ (T-1191-MUC-1 cells [6]): 266 pg/ml/10^6 cell/ml | IL-2 (T-1191-MUC-1 cells [6]): 58.8 pg/ml/10^6 cell/ml | IL-4 (T-1191-MUC-1 cells [6]): <20 pg/ml/10^6 cell/ml | IL-5 (T-1191-MUC-1 cells [6]): <20 pg/ml/10^6 cell/ml | IL-10 (T-1191-MUC-1 cells [6]): <20 pg/ml/10^6 cell/ml | TNF-α (T-1191-MUC-1 cells [6]): <20 pg/ml/10^6 cell/ml

TISDVSVSDV [Peptide P-1135]
T2 binding (HLA-A2 molecule [1]; [7]): 422 relative fluorescence | Production of IFN-γ, with peptide (T-1191-MUC-1 cells [3]): 347.2 pg/mL

ALWGQDVTSL [L-93/L-101]
T2 binding (HLA-A2 molecule [1]; Table 4, P-92 analogues): 736 relative fluorescence values

AMWGQDVTSL [M-93/L-101]
T2 binding (HLA-A2 molecule [1]; Table 4, P-92 analogues): 325 relative fluorescence values

AIWGQDVTSL [I-93/L-101]
T2 binding (HLA-A2 molecule [1]; Table 4, P-92 analogues): 280 relative fluorescence values
